Test results published in patent US5081131A, “Omega-((hetero)alkyl)benz(cd)-indol-2-amines” (American Cyanamid Company, priority 1988, dated 1992).
Structures can show the parent of a compound that is named as a salt.

Legend:
[1] = tested on: spontaneously hypertensive rats; test: Hypotensive activity in spontaneously hypertensive rats (MABP); format: in vivo, rat (Okamoto strain); conditions: SHR, gavage, two doses of 10 mg/kg or less 24 h apart, MABP at 28 h; average baseline 160±1.5 mm Hg
Protocol: The novel compounds of the present invention are active hypotensive agents and were tested for hypotensive activity by the method of P. S. Chan and D. Poorvin, Clinical and Experimental Hypertension, 1 (6), 817-830 (1979). Male, 16 week old, spontaneously hypertensive rats of the Okamoto strain, from Taconic Farms, Germantown, N.Y., having an average mean arterial blood pressure of 160±1.5 mm of mercury, were used in the test. One to 4 rats were used per test compound. A rat was dosed by gavage with a test compound, suspended in 2% pre-boiled starch at a concentration of 50 mg/ml, at a doses of 10 mg/kg of body weight or less, with 0.9% sodium chloride loading at a dose of 25 ml/kg of body weight. A second identical dose of the test compound, without sodium chloride loading was given 24 hours later. At 28 hours after initial dose the mean arterial blood pressure (MABP) was measured. The procedure was repeated in a second and third rat when necessary.

[2] = target: T1, thromboxane synthetase enzyme (Rattus norvegicus, UniProt P49430); test: Thromboxane synthetase enzyme inhibition (TXB2 formation in washed platelets, RIA); format: cell-based, spontaneously hypertensive rat; conditions: 1×10^-4 Molar, SHR platelets, 10 min at 37° C.; for inhibition at 100 µM: read-out: % Inhibition (Thromboxane Synthetase Enzyme Inhibition)
T1 construct: endogenous in cells; host or cells: washed platelets from arterial blood of male Okamoto-Aoki spontaneously hypertensive rats (animals from Taconic Farms, Germantown, N.Y.)
T1 sequence (P49430 1-533): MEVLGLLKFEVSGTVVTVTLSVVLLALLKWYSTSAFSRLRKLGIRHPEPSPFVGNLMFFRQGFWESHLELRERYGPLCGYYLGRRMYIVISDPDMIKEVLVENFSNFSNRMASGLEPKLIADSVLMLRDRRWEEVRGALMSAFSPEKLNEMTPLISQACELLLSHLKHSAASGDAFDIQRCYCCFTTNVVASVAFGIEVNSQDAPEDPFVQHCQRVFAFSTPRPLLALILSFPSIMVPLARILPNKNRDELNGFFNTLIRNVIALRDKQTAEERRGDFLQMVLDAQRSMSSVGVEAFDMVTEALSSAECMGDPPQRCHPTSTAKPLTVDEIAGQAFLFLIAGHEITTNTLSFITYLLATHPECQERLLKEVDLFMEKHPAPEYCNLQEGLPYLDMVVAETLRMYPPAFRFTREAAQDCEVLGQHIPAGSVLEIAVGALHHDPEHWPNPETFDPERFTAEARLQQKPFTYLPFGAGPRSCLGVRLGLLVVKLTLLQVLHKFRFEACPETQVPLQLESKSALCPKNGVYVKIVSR
Protocol: The blood was diluted with 3 ml cold saline and centrifuged at room temperature for 15 min at 468×g. The platelet rich plasma (PRP) was separated. The platelets were isolated by certrifuging the PRP for 10 minutes at 1060×g and washed in 4 ml cold oxygenated Krebs phosphate buffer, pH 7.4. The chilled platelets recovered from centrifuging at 800×g for 10 minutes were resuspended in oxygenated Krebs phosphate buffer and diluted to contain 4.0-6.0×10^4 platelets/micro-liters. The inhibition of TX formation was studied by determining the concentration of thromboxane B2 (TXB2), the stable hydrolysis product of TXA2. Assay samples prepared on ice, contained 200 micro-liters platelet suspension, 50 micro-liters saline, and 50 micro-liters […] (saline) or drug under study. The test drug (0.003 mole) was dissolved in 5 ml of saline. […] The assay samples were incubated for 10 minutes at 37° C. in a metabolic shaker at about 60 rpm. The reaction was terminated by immersing the tubes in an ice bath and adding 50 micro-liters of 0.5M citric acid. The samples were centrifuged for 10 minutes at 2000 rpm at 4° C., and the supernatants were decanted.

Compound | Avg. MABP in mm Hg (No. of Rats) [1] | inhibition at 100 µM [2] | % Inhibition (Thromboxane Synthetase Enzyme Inhibition) [2]
Clc1cc(Cl)c2cccc3c2c1N=C3NCCCn1ccnc1 [6,8-Dichloro-N-(3-(1H-imidazol-1-yl)propyl)benz(cd)indol-2-amine] | 102 mm Hg | 97% | 
Clc1cc(Cl)c2cccc3c2c1N=C3NCCCCn1ccnc1 [6,8-Dichloro-N-(4-(1H-imidazol-1-yl)butyl)benz(cd)indol-2-amine] | 115 mm Hg | 99% | 
Clc1cc(Cl)c2cccc3c2c1N=C3NCCCCc1cccnc1 [6,8-Dichloro-N-(4-(3-pyridinyl)butyl)benz(cd)indol-2-amine] | 102 mm Hg | 93% | 
Clc1cc(Cl)c2cccc3c2c1N=C3NCCCCCCCCCCn1ccnc1 [6,8-Dichloro-N-(10-(1H-imidazol-1-yl)decyl)benz(cd)indol-2-amine] | 121 mm Hg | 96% | 
Brc1ccc2c3c(cccc13)C(NCCCn1ccnc1)=N2 [6-Bromo-N-(3-(1H-imidazol-l-yl)propyl)benz(cd)indol-2-amine, dihydrochloride] | 117 mm Hg | 85% | 
Brc1ccc2c3c(cccc13)C(NCCCCn1ccnc1)=N2 [6-Bromo-N-(4-(1H-imidazol-1-yl)butyl)benz(cd)indol-2-amine] | 120 mm Hg | 98% | 
Brc1ccc2c3c(cccc13)C(NCCCCc1cccnc1)=N2 [6-Bromo-N-(4-(3-pyridinyl)butyl)benz(cd)indol-2-amine sesqui-fumarate] | 110 mm Hg | 92% | 
Brc1ccc2c3c(cccc13)C(NCCCCc1cccnc1)=N2.Cl.Cl [6-Bromo-N-(4-(3-pyridinyl)butyl)benz(cd)indol-2-amine, dihydrochloride] | 99 mm Hg |  | 89%
Brc1ccc2c3c(cccc13)C(NCCCCCCCCCCCCn1ccnc1)=N2 [6-Bromo-N-(12-(1H-imidazol-1-yl)dodecyl)benz(cd)indol-2-amine] | 128 mm Hg | 90% | 
c1cc2c3c(cccc3c1)C(NCCCCn1ccnc1)=N2 [N-(4-(1H-imidazol-1-yl)butyl)benz(cd)indol-2-amine sesquibut] [N-(4-(1H-imidazol-1-yl)butyl)benz(cd)indol-2-amine sesquibutanedioic acid salt] |  |  | 98%
c1cc2c3c(cccc3c1)C(NCCCCn1ccnc1)=N2 [N-(4-(1H-imidazol-1-yl)butyl)benz(cd)indol-2-amine, hydriodi] [N-(4-(1H-imidazol-1-yl)butyl)benz(cd)indol-2-amine, hydriodide] |  |  | 100%
CC(CCCNC1=Nc2cccc3cccc1c23)n1ccnc1.O=C(O)/C=C/C(=O)O.O=C(O)/C=C/C(=O)O (centres unmarked) [N-(4-(1H-imidazol-1-yl)pentyl)benz(cd)indol-2-amine, bis-fumarate] |  |  | 99%
c1ccc(-n2ncc(CNC3=Nc4cccc5cccc3c45)n2)cc1 [N-((2-Phenyl-2H-1,2,3-triazol-2-yl)methyl)benz(cd)indol-2-amine fumarate] |  | 73% | 
O=C(c1ccc(Cl)cc1)N(CCCCn1ccnc1)C1=Nc2cccc3cccc1c23 [N-Benz(cd)indol-2-yl-4-chloro-N-(4-(1-imidazol-1-yl)butylbenzamide] |  | 96% | 
O=C(c1ccccc1)N(CCCn1cncn1)C1=Nc2cccc3cccc1c23 [N-Benz(cd)indol-2-yl-N-(3-(1H-1,2,4-triazol-1-yl)propyl)benzamide] |  | 77% | 
CCC(=O)N(CCC(C)n1ccnc1)C1=Nc2cccc3cccc1c23 (centres unmarked) [N-Benz(cd)indol-2-yl-N-(3-(1H-imidazol-1-yl)butyl)propionamide] |  | 95% | 
CN(CCc1ccccn1)C1=Nc2cccc3cccc1c23 [N-Methyl-N-(2-(2-pyridinyl)ethyl)benz(cd)indol-2-amine fumarate] |  | 89% | 
